We go through one compound from EP0062319A1, “3-Methyl-1-(2-(3-naphthyloxy)-ethyl)-2-pyrazolin-5-one for the treatment of the metastasis and growth of tumour cells” (BAYER AG, priority 1981, dated 1982).

The test system of one assay is B-16 -Melanom-Zellen. Nature of the assay: Tumour cell proliferation and viability in tissue culture. The class given is cell-based, Mäuse. To be noted: 0,1 to 25 µg/ml; cell counts after 8 days; Fig. 2. The text has this:
Die antineoplastische Wirksamkeit wurde außerdem durch direkte Messung des Wachstums der Tumorzellen in vitro in Gewebekulturen bestimmt. Diese Methode bedient sich des "Plating" oder Aufimpfens einer bekannten Anzahl von Tumorzellen auf ein Wachstumsmedium und der Bestimmung der Wirkung der Anwesenheit der zu prüfenden Verbindung auf die Tumorzellen-Proliferation. […] wurde die antineoplastische Aktivität in vivo in der Weise bestimmt, daß den Mäusen subkutan Tumorzellen injiziert wurden und das Auftreten von […] sowie […] in unbehandelten Kontrolltieren und in mit der Pyrazolon-Verbindung behandelten […] worden […] von 3 x 10^4 Zellen pro Platte überimpft. Die Zellen wurden in einem Medium aus MEM, Hank's Basic Salt Solution und 10 % […] bei Microbiological Associates, Walkersville, Maryland, kultiviert. Nach 24-stündiger Inkubation bei 37°C wurden die ZellZählungen durch […] Medium wurde […] und durch das oben bezeichnete.Medium und Pyrazolon in einem von 0,1 bis 25 μg/ml […]. Die Kontrollgruppen erhielten nur einen Austausch des Mediums. Danach wurde das Pyrazolon enthaltende Medium jeden zweiten Tag ersetzt. Nach 8 Tagen wurden Zellzählungen wie oben beschrieben durchgeführt, und die Lebensfähigkeit der Zellen wurde nach der weiter oben genannten Vitalfarbstoff-Ausschlußmethode (vital dye exclusive method) bestimmt. Die Daten sind dargestellt als Mittelwert der Zahl […] aus […]. […]

A further assay has as its system Lewis-Lungen-Karzinom. As to the kind of experiment: Spontaneous (full) metastasis of subcutaneously injected Lewis lung carcinoma (lung tumour colonies) in mice. The class given is in vivo, C57BL/6J Mäuse. The settings on record: 0.08 mg daily s.c. The source says: Wie bereits weiter oben festgestellt wurde, ist die Metastase […], die durch eine Reihe komplizierter Vorgänge dargestellt wird. Gegenwärtig finden zwei "Modell"-Systeme für die Untersuchung der in vivo-Metastase verbreitete Anwendung. Das erste Modellsystem umfaßt die subkutane Injektion der Tumorzellen in das Tier. Die subkutane Injektion der Tumorzellen und anschließende Entwicklung eines Primärtumors, gefolgt von spontaner Metastase, wird als "volle" Metastase betrachtet. Ein anderes Modellsystem umfaßt die Injektion der Tumorzellen durch die Schwanzvene. In Anbetracht der Komplexität der Metastase gilt die Schwanzvenen-Injektion als künstliches und nur partielles Modellsystem, da es nur die Vorgänge während des letzteren Teils der Metastase wiedergibt. Das Schwanzvenen-Modellsystem gilt jedoch auch als außerordentlich günstig im Hinblick auf eine Standardisierung der Versuchsbedingungen [vgl."Methods in Cancer Research", Kapitel VII, Academic Press, Inc., 1978].
Als Kontrolltiere wurden (unbehandelte) C57B1/6J-Mäuse nach folgender Arbeitsweise auf volle Metastase untersucht. Zellsuspensionen der B-16 - und 3LL-Karzinom-Zellen, die wie oben unter A und B beschrieben erhalten worden waren, wurden subkutan in die rechte Achselhöhlenregion der männlichen C57BL/6J-Mäuse injiziert (0,66 mm- = 26 gauge -Nadel; 0,2 ml). […]

Consider `CC1=NN(CCOc2ccc3ccccc3c2)C(=O)C1` [3-Methyl-1-[2-(2-naphthyloxy)-ethyl]-2-pyrazolin-5-on], for which the Tumorzellen-Proliferation entry in the assay with B-16 -Melanom-Zellen was “die Tumorzellen-Proliferation über den gleichen Dosierungsbereich hemmte”. The “Lungen-Tumor-Kolonien Lewis-Lungen-Zellen” value in the assay with Lewis-Lungen-Karzinom (1 x 10^5 cells s.c., killed day 21, mean ± SEM) is given as 0.8 ± 0.5. The “Lungen-Tumor-Kolonien Lewis-Lungen-Zellen (fraction in brackets)” value with Lewis-Lungen-Karzinom (bracketed fraction) was 2/12.
